Reference: patent publication US20210346366A1, “CH24H INHIBITORS FOR PAIN USE” (Takeda Pharmaceutical Company Limited, priority 2018, published 2021)

Assays:
[1] = target: NMDA receptors; settings: read-out: EC50 as positive allosteric modulator of NMDA receptors; cited from earlier work
[2] = system: rat cortical spreading depression (CSD) model; assay: rat cortical spreading depression (CSD) model, KCl-induced; type: in vivo; settings: female Wistar rats, 10 mg/kg orally once daily for 6 days
Experimental: The following Example provides data from a rat cortical spreading depression (CSD) model, which recapitulates symptoms seen in migraine patients with aura. (2R)-1-((1-(4-(4-Methyl-1H-pyrazol-1-yl)pyridin-3-yl)piperidin-4-yl)carbonyl)pyrrolidine-2-carbonitrile was tested in the CSD model for its potential effects on hyperperfusion events and cortical direct current (DC)-potentials. Adult female Wistar rats from Charles River Germany were used for the experiment. Animals were housed at a standard temperature (22±1° C.) and in a light-controlled environment (lights on from 7 am to 8 pm) with ad libitum access to food and water. Rats were orally treated with vehicle (0.5% methylcellulose in water) or (2R)-1-((1-(4-(4-methyl-1H-pyrazol-1-yl)pyridin-3-yl)piperidin-4-yl)carbonyl)pyrrolidine-2-carbonitrile at the dose of 10 mg/kg once daily for 6 days (n=8). One hour after the last dosing, rats were anesthetized with 5% isoflurane (in 70% N2O and 30% O2; flow 300 ml/min), and placed in a stereotactic frame.
During the operation and CSD the concentration of anesthetic was reduced to 1-1.5%. The rectal temperature was maintained at 37.0±1.0° C. with a homeothermic blanket system. The skin was opened by a medial incision and retracted laterally. Three burr holes were drilled under saline cooling over the right hemisphere at the following coordinates (mm from bregma): (1) posterior 4.5, lateral, 2.0 (occipital cortex): KCl application site; (2) posterior 0.5, lateral 2.0 (parietal cortex) (3) anterior 2, lateral 2 (frontal cortex). A laser-Doppler flow probe (Oxyflow, Oxford Optronics, UK) to monitor cerebral blood flow (CBF) was placed in the parietal cortex burr holes on the intact dura. An invasive Ag/AgCl electrode for measuring DC potential shifts was placed in the frontal cortex burr holes on the intact dura. For the DC-potential measurement, a reference electrode was fixed in the neck. […] The number of KCl-induced CSDs was checked over the period of 2 hours and the number of CBF changes was also measured. […]

[3] = system: mouse model of chronic post-ischemic pain; assay: mouse model of chronic post-ischemic pain (CRPS model), von Frey paw withdraw threshold; type: in vivo; settings: 30 mg/kg orally once daily for 7 days
Experimental: The following Example provides data from a mouse model of chronic post-ischemic pain, which recapitulates symptoms seen in CRPS patients with peripheral tissue injury and subsequent progression of allodynia. (4-Benzyl-4-hydroxypiperidin-1-yl) (2,4′-bipyridin-3-yl)methanone was tested in the CRPS model for its potential effects on pain. Following 3-hour ischemia and 0.5-hour reperfusion given at a hind limb, mice (C57) were orally treated with (4-benzyl-4-hydroxypiperidin-1-yl) (2,4′-bipyridin-3-yl)methanone at the dose of 30 mg/kg once daily for 7 days (n=8). Paw withdraw threshold was evaluated with von Frey filaments as a behavioral index of mechanical allodynia at 0 h for the base line, 6 h, Days 1, 2, 4 and 7. The cumulative score of paw withdraw threshold over the study period was 17.7 in the sham-treated control group without ischemia/reperfusion injury. In the groups given ischemic injury, the cumulative score was 9.0 and 16.2 for the vehicle control and (4-benzyl-4-hydroxypiperidin-1-yl) (2,4′-bipyridin-3-yl)methanone group, respectively.

**Q.** With `CC(C)[C@@H](O)CC[C@@H](C)[C@H]1CC[C@H]2[C@@H]3CC=C4C[C@@H](O)CC[C@]4(C)[C@H]3CC[C@]12C` [24(S)-hydroxycholesterol] as the compound, how does the EC50 [1] read?
**A.** 1200 nM

**Q.** What does the source list for `Cc1cnn(-c2ccncc2N2CCC(C(=O)N3CCC[C@@H]3C#N)CC2)c1` [(2R)-1-((1-(4-(4-methyl-1H-pyrazol-1-yl)pyridin-3-yl)piperidin-4-yl)carbonyl)pyrrolidine-2-carbonitrile]?
**A.** CSD events (effect of treatment) [2]: markedly reduced; average number of KCl-induced CSDs ([2]; counted over 2 hours, vehicle 10.00): 4.75; average number of CBF changes ([2]; over 2 hours, vehicle 22.75): 15.75

**Q.** Which “allodynia threshold (effect of treatment)” value ([3]; C57 mice with ischemic injury) does the source give for `O=C(c1cccnc1-c1ccncc1)N1CCC(O)(Cc2ccccc2)CC1` [(4-benzyl-4-hydroxypiperidin-1-yl) (2,4′-bipyridin-3-yl)methanone] here?
**A.** markedly increased

**Q.** And the “cumulative score of paw withdraw threshold over the study period” value ([3]; C57 mice, 3-hour ischemia and 0.5-hour reperfusion at a hind limb, von Frey filaments, vehicle 9.0, sham 17.7)?
**A.** 16.2
